pIC50, pKi: −log10 of the molar value. Values belong to the molecule of their own block, whether it stands above or below them. Activity calls are given as the source filed them. No cut-off for these calls is given here. Square brackets hold non-standard residues; d marks the D form. Peptide text beside a SMILES is read from it. Asu = N[C@@H](CCCCCC(=O)O)C(=O)O
Assays:
[1] = target: T1, NAD-dependent protein deacetylase sirtuin-1 (Homo sapiens) (UniProt Q96EB6); experiment: Inhibition of SIRT1 in human HCT116 cells assessed as enhancement of p53 acetylation at K382 position at 50 uM after 8 hrs by Western blot analysis; type: cell-based; conditions: HCT-116
T1 sequence (whole entry): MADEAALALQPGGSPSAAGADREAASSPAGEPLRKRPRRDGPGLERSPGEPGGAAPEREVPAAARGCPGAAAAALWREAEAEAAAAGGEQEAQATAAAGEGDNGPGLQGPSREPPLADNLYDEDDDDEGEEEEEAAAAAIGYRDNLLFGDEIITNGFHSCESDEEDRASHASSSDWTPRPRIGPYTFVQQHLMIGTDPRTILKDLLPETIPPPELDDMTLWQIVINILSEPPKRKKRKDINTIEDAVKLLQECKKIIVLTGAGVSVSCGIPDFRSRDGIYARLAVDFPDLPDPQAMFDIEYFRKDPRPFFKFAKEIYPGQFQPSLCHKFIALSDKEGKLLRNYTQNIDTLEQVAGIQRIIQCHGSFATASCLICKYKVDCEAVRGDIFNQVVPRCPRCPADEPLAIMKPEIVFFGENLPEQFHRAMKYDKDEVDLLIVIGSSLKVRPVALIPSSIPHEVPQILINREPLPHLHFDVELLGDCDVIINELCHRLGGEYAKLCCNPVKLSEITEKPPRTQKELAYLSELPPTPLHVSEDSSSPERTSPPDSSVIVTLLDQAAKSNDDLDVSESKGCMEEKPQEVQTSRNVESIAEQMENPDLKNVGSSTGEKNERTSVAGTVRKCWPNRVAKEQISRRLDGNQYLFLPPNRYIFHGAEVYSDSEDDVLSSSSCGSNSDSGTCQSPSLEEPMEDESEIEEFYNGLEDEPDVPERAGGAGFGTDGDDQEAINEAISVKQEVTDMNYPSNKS

[2] = target: T1, NAD-dependent protein deacetylase sirtuin-1 (Homo sapiens); experiment: Inhibition of SIRT1 in human HCT116 cells assessed as enhancement of p53 acetylation at K382 position at 5 uM after 8 hrs by Western blot analysis; type: cell-based; conditions: HCT-116
[3] = target: T1, NAD-dependent protein deacetylase sirtuin-1 (Homo sapiens); experiment: Inhibition of SIRT1 in human HCT116 cells assessed as enhancement of p53 acetylation at K382 position after 8 hrs by Western blot analysis; type: cell-based; conditions: HCT-116
[4] = target: T2, Histone deacetylase 8 (Homo sapiens) (UniProt Q9BY41); experiment: Inhibition of human full length HDAC8 using CH3CONH-RH-AcK-(AcK)-CONH2 as substrate assessed as enzymatic deacetylation product formation measured at 500 uM after 1 hr by HPLC analysis
T2 sequence (whole entry): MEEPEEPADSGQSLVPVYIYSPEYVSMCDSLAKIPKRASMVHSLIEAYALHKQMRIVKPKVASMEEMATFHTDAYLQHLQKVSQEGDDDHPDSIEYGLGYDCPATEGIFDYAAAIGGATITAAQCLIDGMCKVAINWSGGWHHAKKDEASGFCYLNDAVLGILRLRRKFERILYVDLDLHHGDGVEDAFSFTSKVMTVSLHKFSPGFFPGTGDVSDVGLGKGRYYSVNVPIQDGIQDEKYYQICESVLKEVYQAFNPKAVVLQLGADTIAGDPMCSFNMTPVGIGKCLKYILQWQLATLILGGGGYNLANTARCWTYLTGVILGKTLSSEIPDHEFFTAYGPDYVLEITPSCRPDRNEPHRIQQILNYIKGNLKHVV

[5] = target: T1, NAD-dependent protein deacetylase sirtuin-1 (Homo sapiens); experiment: Inhibition of lysine deacetylase activity of human full length GST-tagged SIRT1 expressed in Escherichia coli using H2N-HK-AcK-LM-COOH as substrate at 500 uM incubated with enzyme for 5 mins by reverse-phase HPLC analysis
[6] = target: T3, NAD-dependent protein deacetylase sirtuin-1 (Homo sapiens, UniProt Q96EB6); experiment: Inhibition of lysine deacetylase activity of human full length GST-tagged SIRT1 expressed in Escherichia coli using H2N-HK-AcK-LM-COOH as substrate incubated with enzyme for 5 mins by reverse-phase HPLC analysis
T3 sequence (Q96EB6 whole entry): T1 sequence (whole entry)

[7] = target: T1, NAD-dependent protein deacetylase sirtuin-1 (Homo sapiens); experiment: Mechanism based inhibition of human full length GST-tagged SIRT1 expressed in Escherichia coli assessed as longer-lived stabilized catalytic intermediate formation at 0.4 mM after 30 mins by MALDI-MS analysis in presence of NAD+
[8] = target: T4, NAD-dependent protein deacetylase (Thermotoga maritima (strain ATCC 43589 / MSB8 / DSM 3109 / JCM 10099)) (UniProt Q9WYW0); experiment: Mechanism based inhibition of Thermotoga maritima Sir2Tm assessed as longer-lived stabilized catalytic intermediate formation at 0.4 mM after 30 mins by MALDI-MS analysis in presence of NAD+
T4 sequence (whole entry): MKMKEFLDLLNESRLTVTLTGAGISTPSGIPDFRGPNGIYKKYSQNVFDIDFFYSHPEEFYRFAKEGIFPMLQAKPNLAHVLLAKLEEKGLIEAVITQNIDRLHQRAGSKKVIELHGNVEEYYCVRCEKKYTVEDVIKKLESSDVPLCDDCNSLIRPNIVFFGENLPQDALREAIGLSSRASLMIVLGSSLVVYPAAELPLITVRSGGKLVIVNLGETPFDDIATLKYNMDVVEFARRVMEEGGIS

[9] = target: T1, NAD-dependent protein deacetylase sirtuin-1 (Homo sapiens); experiment: Mechanism based inhibition of human full length GST-tagged SIRT1 expressed in Escherichia coli assessed as longer-lived stabilized catalytic intermediate 3 formation at 0.4 mM after 30 mins by MALDI-MS analysis in presence of NAD+ and 63% (v/v) H218O
[10] = target: T1, NAD-dependent protein deacetylase sirtuin-1 (Homo sapiens); experiment: Time-dependent inhibition of human full length GST-tagged SIRT1 expressed in Escherichia coli using H2N-HK-AcK-LM-COOH as substrate assessed as enzymatic deacetylation product formation at 5 to 10 uM by reverse-phase HPLC analysis
[11] = target: T3, NAD-dependent protein deacetylase sirtuin-1; experiment: Competitive inhibition of human full length GST-tagged SIRT1 expressed in Escherichia coli using H2N-HK-AcK-LM-COOH as substrate assessed as enzymatic deacetylation product formation incubated with enzyme for 5 mins by double reciprocal plot analysis
[12] = target: T1, NAD-dependent protein deacetylase sirtuin-1 (Homo sapiens); experiment: Irreversible inhibition of human full length GST-tagged SIRT1 expressed in Escherichia coli using H2N-HK-AcK-LM-COOH as substrate assessed as recovery of enzyme activity at 150 uM preincubated for 30 mins followed by rapid dilution of preformed enzyme-inhibitor complex measured after 2 to 30 mins by reverse-phase HPLC analysis
[13] = target: T1, NAD-dependent protein deacetylase sirtuin-1 (Homo sapiens); experiment: Mechanism based inhibition of human full length GST-tagged SIRT1 expressed in Escherichia coli assessed as longer-lived stabilized catalytic intermediate 2 formation at 0.4 mM after 30 mins by MALDI-MS analysis in presence of NAD+ and 20% (v/v) methanol

Activity [1]: Active
Activity [2]: inactive
Activity [3]: Dose-dependent effect
SMILES: CC(=O)NCCCC[C@H](NC(=O)[C@H](CCCCCC(N)=O)NC(=O)[C@H](CCCCNC(C)=O)NC(C)=O)C(N)=O (Ac-Lys(Ac)-[Asu](NH2)-Lys(Ac)-NH2)

inhibition [4]: 12%
SMILES: CC(=O)NCCCC[C@H](NC(=O)[C@H](Cc1cnc[nH]1)NC(=O)[C@H](CCCNC(=N)N)NC(C)=O)C(=O)N[C@@H](CCCCCC(N)=O)C(N)=O (Ac-RHK(Ac)[Asu](NH2)-NH2)

inhibition [5]: inactive
SMILES: COC(=O)CCCCC[C@H](NC(=O)[C@H](CCCCN)NC(=O)[C@H](Cc1cnc[nH]1)NC(C)=O)C(=O)N[C@@H](CC(C)C)C(=O)N[C@@H](CCSC)C(N)=O (Ac-HK[Asu](OMe)LM-NH2)

pIC50 [6]: < 3.00
SMILES: NC(=O)CCCCC[C@H](NC(=O)OCc1ccccc1)C(=O)Nc1ccccc1

inhibition [7]: Active
inhibition [8]: Active
inhibition [9]: Active
inhibition [10]: Active
pKi [11]: 5.59
Activity [12]: inactive
inhibition [13]: Active
pIC50 [6]: 4.93
SMILES: CSCC[C@H](NC(=O)[C@H](CC(C)C)NC(=O)[C@H](CCCCCC(N)=O)NC(=O)[C@H](CCCCN)NC(=O)[C@H](Cc1cnc[nH]1)NC(C)=O)C(N)=O (Ac-HK[Asu](NH2)LM-NH2)
